In ChEMBL document CHEMBL1201862, “PubChem BioAssay data set” (2004) one finds AC50 and IC50 data, which are given here for three compounds.

Calls of active or inactive are those of the source. For most assays here, no stated cut-off is given here; in the data, actives have a measured AC50 and inactives only a lower limit. Some results are limits rather than exact numbers.

Experiment [1] in a line: non-specific 3'UTR reporter inhibition in Clone20-Shn3RL – cell-based, Renilla luciferase, cherry-picked, counter-screen for Shn3 inhibitor project, dose response (AID 624133). It counts as functional.
A further experiment deals with Caspase-8 (Homo sapiens, UniProt Q14790). Briefly: inhibitors of purified CASP8 protease – biochemical, Z-IETD-R110 fluorescence, cherry-picked samples, selectivity assay for caspase-6 inhibitor project, dose response (AID 743294).
Sequence of Caspase-8 (Q14790 217-374 limits assumed): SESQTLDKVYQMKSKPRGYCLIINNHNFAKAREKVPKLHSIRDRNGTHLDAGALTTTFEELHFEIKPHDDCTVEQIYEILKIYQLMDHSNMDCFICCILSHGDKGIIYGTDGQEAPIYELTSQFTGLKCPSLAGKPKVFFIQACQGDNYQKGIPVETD
Sequence of Caspase-8 (Q14790 385-479 limits assumed): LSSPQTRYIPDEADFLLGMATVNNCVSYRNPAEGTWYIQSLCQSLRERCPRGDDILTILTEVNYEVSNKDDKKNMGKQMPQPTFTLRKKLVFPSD
Experiment [2] is described as follows: reduction of Shn3 3'UTR-driven luciferase in osteoblasts – cell-based, Clone20 osteoblasts, firefly luciferase, cherry-picked, dose response (AID 624132).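 Further: firefly luciferase luminescence from reporter carrying the Shn3 3'UTR in osteoblasts.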 It is filed as functional.
A further experiment concerns the target T1, Exodeoxyribonuclease V (Escherichia coli (strain K12), UniProt P04993+P07648+P08394).
T1 sequence (P04993 whole entry): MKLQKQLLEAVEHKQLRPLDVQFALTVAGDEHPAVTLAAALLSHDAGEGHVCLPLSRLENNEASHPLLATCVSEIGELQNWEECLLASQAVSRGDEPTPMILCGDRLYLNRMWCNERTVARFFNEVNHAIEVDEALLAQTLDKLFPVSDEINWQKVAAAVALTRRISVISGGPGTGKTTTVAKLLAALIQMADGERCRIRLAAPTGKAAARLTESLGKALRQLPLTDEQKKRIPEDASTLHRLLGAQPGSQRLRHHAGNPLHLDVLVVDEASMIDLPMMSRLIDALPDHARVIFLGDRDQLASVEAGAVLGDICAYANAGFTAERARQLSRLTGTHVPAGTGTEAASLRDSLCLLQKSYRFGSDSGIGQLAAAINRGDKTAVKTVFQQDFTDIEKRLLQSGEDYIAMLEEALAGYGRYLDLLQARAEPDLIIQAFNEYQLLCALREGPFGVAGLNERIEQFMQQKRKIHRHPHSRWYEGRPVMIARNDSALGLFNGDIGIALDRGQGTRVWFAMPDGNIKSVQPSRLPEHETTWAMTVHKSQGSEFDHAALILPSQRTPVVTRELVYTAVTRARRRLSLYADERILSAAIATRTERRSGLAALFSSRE
T1 sequence (P07648 whole entry): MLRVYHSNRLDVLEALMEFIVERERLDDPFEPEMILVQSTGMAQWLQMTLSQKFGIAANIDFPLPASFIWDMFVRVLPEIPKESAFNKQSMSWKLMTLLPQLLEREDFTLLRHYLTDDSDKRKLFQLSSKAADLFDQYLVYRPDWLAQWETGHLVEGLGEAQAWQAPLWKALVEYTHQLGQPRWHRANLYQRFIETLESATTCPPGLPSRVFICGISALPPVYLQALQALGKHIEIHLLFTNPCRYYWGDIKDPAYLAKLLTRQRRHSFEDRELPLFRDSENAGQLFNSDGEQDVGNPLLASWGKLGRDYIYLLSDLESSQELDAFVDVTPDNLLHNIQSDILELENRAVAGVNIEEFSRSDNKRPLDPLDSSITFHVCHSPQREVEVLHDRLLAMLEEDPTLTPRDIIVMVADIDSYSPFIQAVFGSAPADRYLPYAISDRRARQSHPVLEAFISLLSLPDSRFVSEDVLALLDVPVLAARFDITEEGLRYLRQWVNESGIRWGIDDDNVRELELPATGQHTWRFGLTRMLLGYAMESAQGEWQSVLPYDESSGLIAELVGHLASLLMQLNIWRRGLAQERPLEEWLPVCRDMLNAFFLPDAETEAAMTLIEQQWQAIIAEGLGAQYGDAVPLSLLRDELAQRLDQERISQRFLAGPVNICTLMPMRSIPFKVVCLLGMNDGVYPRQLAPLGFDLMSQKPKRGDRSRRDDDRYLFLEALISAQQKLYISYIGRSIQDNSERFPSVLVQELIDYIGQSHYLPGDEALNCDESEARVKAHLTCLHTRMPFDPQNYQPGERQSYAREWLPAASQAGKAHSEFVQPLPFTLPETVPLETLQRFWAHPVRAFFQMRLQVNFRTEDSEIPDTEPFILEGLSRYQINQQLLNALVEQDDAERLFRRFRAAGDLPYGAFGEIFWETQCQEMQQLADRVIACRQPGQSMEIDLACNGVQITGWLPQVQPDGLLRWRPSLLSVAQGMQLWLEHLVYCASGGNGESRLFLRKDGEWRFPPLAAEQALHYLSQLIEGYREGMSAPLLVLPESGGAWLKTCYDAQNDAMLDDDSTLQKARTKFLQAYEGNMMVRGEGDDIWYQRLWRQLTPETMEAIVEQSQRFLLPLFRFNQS
T1 sequence (P08394 whole entry): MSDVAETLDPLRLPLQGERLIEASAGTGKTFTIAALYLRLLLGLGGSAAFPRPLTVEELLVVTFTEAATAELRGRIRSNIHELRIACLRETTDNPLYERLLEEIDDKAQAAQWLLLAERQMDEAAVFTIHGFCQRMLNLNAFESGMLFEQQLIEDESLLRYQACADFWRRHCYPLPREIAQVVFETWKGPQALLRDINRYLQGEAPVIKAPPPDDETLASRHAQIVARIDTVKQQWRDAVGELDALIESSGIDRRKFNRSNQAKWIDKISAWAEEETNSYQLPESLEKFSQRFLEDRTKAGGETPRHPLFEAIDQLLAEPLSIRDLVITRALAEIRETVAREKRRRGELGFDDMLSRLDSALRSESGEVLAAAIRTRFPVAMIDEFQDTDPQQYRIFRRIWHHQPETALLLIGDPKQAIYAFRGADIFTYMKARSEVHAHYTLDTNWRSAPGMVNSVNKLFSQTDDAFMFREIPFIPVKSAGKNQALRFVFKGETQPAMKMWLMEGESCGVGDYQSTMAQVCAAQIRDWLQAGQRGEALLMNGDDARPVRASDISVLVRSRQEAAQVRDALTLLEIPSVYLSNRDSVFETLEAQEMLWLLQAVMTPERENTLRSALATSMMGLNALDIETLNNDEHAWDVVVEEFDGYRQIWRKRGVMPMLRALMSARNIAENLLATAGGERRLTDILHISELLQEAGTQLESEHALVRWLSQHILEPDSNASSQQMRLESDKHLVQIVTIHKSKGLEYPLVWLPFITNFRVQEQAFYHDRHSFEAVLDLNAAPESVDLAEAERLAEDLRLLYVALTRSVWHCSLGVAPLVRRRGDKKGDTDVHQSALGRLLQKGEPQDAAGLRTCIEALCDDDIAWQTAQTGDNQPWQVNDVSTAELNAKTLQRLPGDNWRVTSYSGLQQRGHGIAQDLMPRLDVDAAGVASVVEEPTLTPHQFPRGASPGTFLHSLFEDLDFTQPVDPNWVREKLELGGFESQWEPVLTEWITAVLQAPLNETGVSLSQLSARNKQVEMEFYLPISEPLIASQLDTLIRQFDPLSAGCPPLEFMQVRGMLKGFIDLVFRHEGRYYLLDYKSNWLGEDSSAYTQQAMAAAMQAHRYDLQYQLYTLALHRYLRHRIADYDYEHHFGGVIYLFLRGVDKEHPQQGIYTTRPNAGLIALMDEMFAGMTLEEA
Briefly: RecBCD inhibition via phage-restricted bacterial growth – absorbance, V66 E. coli, mutant T4 phage, counter-screen for AddAB inhibitor project, dose response (AID 492957). It counts as functional, cell-based, Escherichia coli str. K-12 substr. MG1655.

In the next experiment the target is Genome polyprotein (dengue virus type 2, UniProt P29990). In words: flavivirus cap methylation enzyme inhibition – biochemical, confirmation dose response, primary screen (AID 588689). It counts as functional.
Sequence of Genome polyprotein (P29990 2492-3391 limits assumed): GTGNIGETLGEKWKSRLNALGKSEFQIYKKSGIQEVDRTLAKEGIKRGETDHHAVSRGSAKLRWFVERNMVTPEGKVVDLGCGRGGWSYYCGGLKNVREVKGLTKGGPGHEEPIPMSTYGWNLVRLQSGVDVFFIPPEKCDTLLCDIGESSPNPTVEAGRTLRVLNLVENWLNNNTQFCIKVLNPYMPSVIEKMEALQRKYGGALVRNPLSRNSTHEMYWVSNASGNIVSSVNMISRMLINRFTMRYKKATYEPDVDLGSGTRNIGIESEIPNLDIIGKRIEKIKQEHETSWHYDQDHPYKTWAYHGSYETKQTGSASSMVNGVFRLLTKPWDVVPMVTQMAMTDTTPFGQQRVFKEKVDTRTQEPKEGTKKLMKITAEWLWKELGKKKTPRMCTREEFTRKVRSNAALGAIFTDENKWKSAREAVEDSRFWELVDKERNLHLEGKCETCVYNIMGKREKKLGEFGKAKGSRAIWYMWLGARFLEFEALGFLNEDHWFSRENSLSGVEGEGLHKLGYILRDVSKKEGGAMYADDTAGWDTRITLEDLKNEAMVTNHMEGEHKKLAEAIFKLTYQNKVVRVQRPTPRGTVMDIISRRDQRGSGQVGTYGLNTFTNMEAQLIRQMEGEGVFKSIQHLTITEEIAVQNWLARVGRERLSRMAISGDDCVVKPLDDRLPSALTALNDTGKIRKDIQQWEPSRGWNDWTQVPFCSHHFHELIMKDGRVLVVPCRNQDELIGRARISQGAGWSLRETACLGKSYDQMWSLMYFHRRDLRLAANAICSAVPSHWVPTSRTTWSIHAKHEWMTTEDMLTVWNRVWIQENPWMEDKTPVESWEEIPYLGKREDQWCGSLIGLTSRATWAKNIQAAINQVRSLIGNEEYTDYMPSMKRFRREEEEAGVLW

Broadly, the AC50 is the midpoint of the concentration-response curve, whichever way the signal moves. In the case of `Cn1nc(-c2ccccn2)nc2c(=O)n(C)c(=O)nc1-2`, the AC50 was 2.96 µM (active) in experiment [1], 0.436 µM (active) at Caspase-8 and 0.493 µM (active) in experiment [2].

A word on the IC50: it is the concentration at which inhibition is half-maximal. On to `CCC(=O)NC(c1ccc(OC)cc1)c1cc(Cl)c2cccnc2c1O` (stereo not given), for which the IC50 on Exodeoxyribonuclease V was > 119 µM (inactive).

For the compound `COc1ccc(NS(=O)(=O)c2ccc3c(c2)[C@H]2C=CC[C@H]2[C@@H](c2ccc(C(=O)O)cc2)N3)cc1`, the IC50 on Genome polyprotein is 44.3 µM (active).
